Holding throughout (assay): Minimum inhibitory concentration (MIC)
Common to all, as to assay type: cell-based

One experiment has as its system Escherichia coli KC-14. The following applies: KC14; Escherichia coli KC-14, Gram -. As for the experimental part:
(§1) The compounds of the present invention (A, C, E, F, G, H and I) and ofloxacin as control were dissolved in 0.1N aqueous potassium hydroxide to prepare a solution of 5000 μg/ml in concentration. The compounds of the present invention (B, D and J) were dissolved in sterilized distilled water to prepare a solution of 5000 μg/ml in concentration. Each solution was diluted with sterilized distilled water to prepare a standard solution with a concentration of each test compound: 1000 μg/ml. The test was carried out by a method approved by Japan Society of Chemotherapy [cf. Chemotherapy, 29, 76-79 (1981)(TOKYO)].

The test system of the next experiment is Enterobacter cloacae 963. Particulars: Enterobacter cloacae 963, Gram -. The method, then:
as §1

The subject of experiment [1] is Micrococcus luteus ATCC 9341. Particulars: ATCC9341; Micrococcus luteus ATCC 9341, Gram +. As for the experimental part: as §1
A further experiment concerns Shigella sonnei EW-33. Particulars: EW33; Shigella sonnei EW-33, Gram -. As for the experimental part:
as §1

Experiment [2] relates to Staphylococcus aureus FDA 209P JC-1. Particulars: FDA209P; Staphylococcus aureus FDA 209P JC-1, Gram +. As for the experimental part:
as §1

Experiment [3] concerns Morganella morganii IFO 3848. Particulars: IFO3848; Morganella morganii IFO 3848, Gram -. The method, then: as §1
The test system of experiment [4] is Pseudomonas aeruginosa NCTC 10490. Particulars: for MIC: Pseudomonas aeruginosa, NCTC10490, Pseudomonas aeruginosa NCTC 10490, Gram -. As for the experimental part:
as §1

The test system of experiment [5] is Serratia marcescens IAM 1184. Particulars: Serratia marcescens, IAM1184, Serratia marcescens IAM 1184, Gram -. As for the experimental part:
as §1

In experiment [6] the test system is Staphylococcus epidermidis IAM-1296. The following applies: for MIC: Staphylococcus epidermidis, IAM1296, Staphylococcus epidermidis IAM-1296, Gram +. The method, then: as §1
Experiment [7] deals with Acinetobacter calcoaceticus AC 54. The following applies: for MIC: Acinetobacter calcoaceticus, AC54, Acinetobacter calcoaceticus AC 54, Gram -. As for the experimental part:
as §1

Experiment [8] deals with Bacillus subtilis ATCC 6633. The following applies: ATCC6633; Bacillus subtilis ATCC 6633, Gram +; read-out: Minimum inhibitory concentration (MIC). As for the experimental part: as §1
Experiment [9] has as its system Staphylococcus aureus IID 803. Particulars: IID803; Staphylococcus aureus IID 803, Gram +; read-out: Minimum inhibitory concentration (MIC). The method, then: as §1
Experiment [10] relates to Pseudomonas aeruginosa E-2. The following applies: E2; Pseudomonas aeruginosa E-2, Gram -. The method, then: as §1
The subject of experiment [11] is Proteus mirabilis IFO 3849. The following applies: IFO3849; Proteus mirabilis IFO 3849, Gram -. As for the experimental part:
as §1

Experiment [12] has as its system Citrobacter freundii NIHJ 10018-68. The following applies: NIHJ10018; Citrobacter freundii NIHJ 10018-68, Gram -. As for the experimental part:
as §1

Experiment [13] has as its system Salmonella typhimurium IID 971. The following applies: Salmonella typhimurium IID 971, Gram -; for MIC: Salmonella enterica, read-out: Minimum inhibitory concentration (MIC). The method, then:
as §1

For experiment [14], the system named is Streptococcus faecalis IID 682. Particulars: Enterococcus faecalis, IID682, Streptococcus faecalis IID 682, Gram +. The method, then:
as §1

The next experiment has as its system Proteus vulgaris OX-19. The method, then:
as §1

For experiment [15], the system named is Escherichia coli NIHJ JC-2. Particulars: NIHJJC2; Escherichia coli NIHJ JC-2, Gram -. The method, then: as §1
Experiment [16] has as its system Enterobacter aerogenes ATCC 13048. The following applies: for MIC: Klebsiella aerogenes, ATCC13048, Enterobacter aerogenes ATCC 13048, Gram -. The method, then:
as §1

In experiment [17] the test system is Pseudomonas aeruginosa IFO 3445. The following applies: Pseudomonas aeruginosa, IFO3445, Pseudomonas aeruginosa IFO 3445, Gram -. The method, then:
as §1

Experiment [18] concerns Klebsiella pneumoniae PCI 602. The following applies: for MIC: Klebsiella pneumoniae, PCI602, Klebsiella pneumoniae PCI 602, Gram -, read-out: Minimum inhibitory concentration (MIC). As for the experimental part:
as §1

Setting [19] is: OX19, Proteus vulgaris OX-19, Gram -, read-out: Minimum inhibitory concentration (MIC).

SMILES strings stand for the structures. In brackets after ≈: the same amount, converted by molar mass. Structures can show the parent of a compound that is named as a salt. Where two headings read alike, the source gives them in different places.

Turning to `CN1CCN(c2c(F)cc3c(=O)c(C(=O)O)c4scc5n4c3c2OC5)CC1` [Compound (A), 9,1-Epoxymethano-7-fluoro-8-(4-methyl-1-piperazinyl)-5-oxo-5H-thiazolo[3,2-a]quinoline-4-carboxylic acid], the MIC against Escherichia coli KC-14 is 0.1 µg/mL (≈ 0.257 µM); with Enterobacter cloacae 963 it was 0.1 µg/mL (≈ 0.257 µM); in [1], 1.56 µg/mL; in the experiment with Shigella sonnei EW-33, 0.05 µg/mL (≈ 0.128 µM); in experiment [2], 0.2 µg/mL; in [3] it was 0.1 µg/mL (≈ 0.257 µM). The MIC was 0.78 µg/mL (≈ 2 µM) in experiment [4]; 0.2 µg/mL (≈ 0.514 µM) in experiment [5]; 0.39 µg/mL in experiment [6]; 0.2 µg/mL (≈ 0.514 µM) in experiment [7]; 0.1 µg/mL (≈ 0.257 µM) in [8]; 0.2 µg/mL (≈ 0.514 µM) in [9]. Moreover, the MIC in [10] was found to be 0.78 µg/mL (≈ 2 µM); in experiment [11] it was 0.2 µg/mL (≈ 0.514 µM); in experiment [12], 0.2 µg/mL (≈ 0.514 µM); in experiment [13], 0.05 µg/mL (≈ 0.128 µM); in experiment [14], 0.39 µg/mL; in the experiment on Proteus vulgaris OX-19 (setting [19]), 0.05 µg/mL (≈ 0.128 µM). The figures for the MIC in experiment [15], in [16] and in [17] were 0.1 µg/mL (≈ 0.257 µM), 0.1 µg/mL (≈ 0.257 µM) and 0.78 µg/mL (≈ 2 µM), respectively.
With `O=C(O)c1c(=O)c2cc(F)c(N3CCNCC3)c3c2n2c(csc12)CO3` [Compound (C), 9,1-Epoxymethano-7-fluoro-8-(1-piperazinyl)-5-oxo-5H-thiazolo[3,2-a]quinoline-4-carboxylic acid], the MIC with Escherichia coli KC-14 stood at 0.1 µg/mL (≈ 0.266 µM); in the experiment on Enterobacter cloacae 963, 0.2 µg/mL (≈ 0.533 µM); in experiment [1], 3.13 µg/mL; in the experiment on Shigella sonnei EW-33, 0.05 µg/mL (≈ 0.133 µM); in experiment [18], 0.05 µg/mL (≈ 0.133 µM); in [2], 0.39 µg/mL. Moreover, the MIC in experiment [3] was 0.1 µg/mL (≈ 0.266 µM); in experiment [4] it was 0.39 µg/mL (≈ 1.04 µM); in [5], 0.39 µg/mL (≈ 1.04 µM); in experiment [6] it was 0.78 µg/mL; in [7], 0.78 µg/mL (≈ 2.08 µM); in [8] it was 0.2 µg/mL (≈ 0.533 µM). Moreover, the MIC in experiment [9] was found to be 0.39 µg/mL (≈ 1.04 µM); in [10], 0.78 µg/mL (≈ 2.08 µM); in [11], 0.2 µg/mL (≈ 0.533 µM); in [12] it was 0.2 µg/mL (≈ 0.533 µM); in [13], 0.05 µg/mL (≈ 0.133 µM); in experiment [14], 0.78 µg/mL. For the same molecule, the MIC in the experiment on Proteus vulgaris OX-19 (setting [19]) turned out to be 0.1 µg/mL (≈ 0.266 µM); in experiment [15], 0.1 µg/mL (≈ 0.266 µM); in experiment [16], 0.1 µg/mL (≈ 0.266 µM); in [17], 0.78 µg/mL (≈ 2.08 µM).
For the molecule `O=C(O)c1c(=O)c2cc(F)c(N3CCNCC3)c3c2n2c(csc12)CO3` [Compound (D), 9,1-Epoxymethano-7-fluoro-8-(1-piperazinyl)-5-oxo-5H-thiazolo[3,2-a]quinoline-4-carboxylic acid.hydrochloride.1/2hydrate], the “Minimum inhibitory concentration (MIC)” value in [18] (Klebsiella pneumoniae PCI 602, Gram -) is 0.025 µg/mL; in [4] (Pseudomonas aeruginosa NCTC 10490, Gram -), 0.78 µg/mL; in experiment [6] (Staphylococcus epidermidis IAM-1296, Gram +) it was 1.56 µg/mL; in [7] (Acinetobacter calcoaceticus AC 54, Gram -), 1.56 µg/mL; in experiment [13], 0.10 µg/mL; in experiment [16] (Enterobacter aerogenes ATCC 13048, Gram -), 0.20 µg/mL.
On to `CC1CN(c2c(F)cc3c(=O)c(C(=O)O)c4scc5n4c3c2OC5)CCN1` (centres unmarked) [Compound (E), 9,1-Epoxymethano-7-fluoro-8-(3-methyl-1-piperazinyl)-5-oxo-5H-thiazolo[3,2-a]quinoline-4-carboxylic acid.1/4hydrate], for which the MIC worked out at 0.1 µg/mL against Escherichia coli KC-14; 0.2 µg/mL against Enterobacter cloacae 963; 3.13 µg/mL in [1]; 0.1 µg/mL with Shigella sonnei EW-33; 0.025 µg/mL in experiment [18]; 0.2 µg/mL in experiment [2]. Further, the MIC in experiment [3] is 0.1 µg/mL; in experiment [4], 0.78 µg/mL; in experiment [5], 0.39 µg/mL; in [6], 0.78 µg/mL; in experiment [7] it was 0.78 µg/mL; in [8] it was 0.1 µg/mL. Also, the MIC in [9] was determined as 0.2 µg/mL; in experiment [10], 0.78 µg/mL; in [11], 0.2 µg/mL; in experiment [12] it was 0.78 µg/mL; in experiment [13], 0.1 µg/mL; in experiment [14] it was 0.78 µg/mL. Moreover, the MIC in the experiment with Proteus vulgaris OX-19 (Proteus vulgaris, OX19, read-out: Minimum inhibitory concentration (MIC)) worked out at 0.05 µg/mL; in experiment [15], 0.2 µg/mL; in [16] it was 0.1 µg/mL; in [17], 1.56 µg/mL.
